For this assay, the system named is P388 leukemia ip, CD2F1 mice, survival T/C. Kind of assay: NCI In Vivo Anticancer Drug Screen. Data for tumor model P388 Leukemia (intraperitoneal) in CD2F1 (CDF1) mice. The settings on record: endpoint: median survival time, higher = longer survival. The method in brief: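 Mice carrying the transplanted tumor received test compound or vehicle. Survival was recorded in each group, and the value is the treated-group measurement divided by that of the vehicle-treated control group.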

The mark [1] stands for this setting: dose: 12.5 mg/kg/injection, schedule: Q01DX009 (ip), vehicle: saline with Tween-80.
The mark [2] stands for this setting: dose: 25.0 mg/kg/injection, schedule: Q01DX009 (ip), vehicle: saline with Tween-80.
Setting [3] is: dose: 50.0 mg/kg/injection, schedule: Q01DX009 (ip), vehicle: saline with Tween-80.
The mark [4] stands for this setting: dose: 50.0 mg/kg/injection, schedule: Q04DX002 (ip), vehicle: saline with Tween-80.
The mark [5] stands for this setting: dose: 100.0 mg/kg/injection, schedule: Q04DX002 (ip), vehicle: saline with Tween-80.
Where [6] appears, read: dose: 200.0 mg/kg/injection, schedule: Q04DX002 (ip), vehicle: saline with Tween-80.
[7] abbreviates: dose: 50.0 mg/kg/injection, schedule: Q01DX005 (ip), vehicle: saline.
Where [8] appears, read: dose: 100.0 mg/kg/injection, schedule: Q01DX005 (ip), vehicle: saline.
[9] abbreviates: dose: 200.0 mg/kg/injection, schedule: Q01DX005 (ip), vehicle: saline.
Setting [10] is: dose: 100.0 mg/kg/injection, schedule: Q04DX003 (ip), vehicle: saline with Tween-80.
Where [11] appears, read: dose: 400.0 mg/kg/injection, schedule: Q04DX002 (ip), vehicle: saline with Tween-80.
Setting [12] is: dose: 60.0 mg/kg/injection, schedule: Q01DX005 (ip), vehicle: saline with Tween-80.
Setting [13] is: dose: 120.0 mg/kg/injection, schedule: Q01DX005 (ip), vehicle: saline with Tween-80.
The mark [14] stands for this setting: dose: 240.0 mg/kg/injection, schedule: Q01DX005 (ip), vehicle: saline with Tween-80.
Where [15] appears, read: dose: 100.0 mg/kg/injection, schedule: Q01DX001 (ip), vehicle: Klucel (hydroxypropylcellulose) (HPC).
[16] abbreviates: dose: 200.0 mg/kg/injection, schedule: Q01DX001 (ip), vehicle: Klucel (hydroxypropylcellulose) (HPC).
The mark [17] stands for this setting: dose: 400.0 mg/kg/injection, schedule: Q01DX001 (ip), vehicle: Klucel (hydroxypropylcellulose) (HPC).
The mark [18] stands for this setting: dose: 50.0 mg/kg/injection, schedule: Q01DX005 (ip), vehicle: Klucel (hydroxypropylcellulose) (HPC).
Where [19] appears, read: dose: 100.0 mg/kg/injection, schedule: Q01DX005 (ip), vehicle: Klucel (hydroxypropylcellulose) (HPC).
Setting [20] is: dose: 200.0 mg/kg/injection, schedule: Q01DX005 (ip), vehicle: Klucel (hydroxypropylcellulose) (HPC).

T/C data for 23 molecules are collected here from PubChem BioAssay AID330 (DTP/NCI, 2004).

“And” between values parts separate entries of the source, which are not always exact repeats. Identical values can stand only once. Inconclusive results and toxic doses are left out.

For `Cc1c2cnccc2c(C)c2c1c1ccccc1n2CC1CO1` (stereo not given), the T/C was 155 % of control (dose: 6.25 mg/kg/injection, schedule: Q01DX009 (ip), vehicle: saline with Tween-80); 111 % of control (dose: 8.0 mg/kg/injection, schedule: Q01DX009 (ip), vehicle: Klucel (hydroxypropylcellulose) (HPC)); 158 % of control (dose: 11.0 mg/kg/injection, schedule: Q01DX009 (ip), vehicle: saline with Tween-80); 152 % of control under setting [1]; 122 % of control (dose: 16.0 mg/kg/injection, schedule: Q04DX003 (ip), vehicle: Klucel (hydroxypropylcellulose) (HPC)); 171 % of control (dose: 16.5 mg/kg/injection, schedule: Q01DX009 (ip), vehicle: saline with Tween-80). Moreover, the T/C reads like this: under setting [2], 160 % of control and 168 % of control; under setting [3], 88 % of control; (dose: 128.0 mg/kg/injection, schedule: Q04DX003 (ip), vehicle: Klucel (hydroxypropylcellulose) (HPC)) 159 % of control.

In the case of `O=C(O)C[N-]CC[N-]CC(=O)O.[Cl][Pt+2][Cl]`, the T/C is 108 % of control (dose: 6.25 mg/kg/injection, schedule: Q04DX002 (ip), vehicle: saline with Tween-80); 103 % of control (dose: 12.5 mg/kg/injection, schedule: Q04DX002 (ip), vehicle: saline with Tween-80); 113 % of control (dose: 25.0 mg/kg/injection, schedule: Q04DX002 (ip), vehicle: saline with Tween-80); 109 % of control under setting [4]; 120 % of control under setting [5]; 102 % of control under setting [6].

For `NC1CC(=O)N(Cc2ccccc2)C1=O` (stereo not given), the T/C was 97 % of control under setting [7], 91 % of control under setting [8] and 93 % of control under setting [9].

On to `O=C(O)c1cc(N=Nc2ccc(-c3ccc(N=Nc4c(S(=O)(=O)O)cc5cc(Nc6ccccc6)ccc5c4O)cc3)cc2)ccc1O`, for which the T/C under setting [7] was 107 % of control, the T/C under setting [8] is 114 % of control and the T/C under setting [9] is 112 % of control.

As to `O=c1ccnc(Sc2ncccc2[N+](=O)[O-])[nH]1`, the T/C was 100 % of control under setting [10]; 100 % of control (dose: 200.0 mg/kg/injection, schedule: Q04DX003 (ip), vehicle: saline with Tween-80); 100 % of control (dose: 400.0 mg/kg/injection, schedule: Q04DX003 (ip), vehicle: saline with Tween-80).

With `CS(=O)(=O)c1nc(N)c2nnn(C3OC(CO)C(O)C3O)c2n1` (stereo not given), the T/C is 109 % of control (dose: 12.5 mg/kg/injection, schedule: Q01DX001 (ip), vehicle: saline); 100 % of control (dose: 25.0 mg/kg/injection, schedule: Q01DX001 (ip), vehicle: saline); 118 % of control (dose: 50.0 mg/kg/injection, schedule: Q01DX001 (ip), vehicle: saline); 109 % of control (dose: 100.0 mg/kg/injection, schedule: Q01DX001 (ip), vehicle: saline).

On to `c1ccc2sc(SSN3CCOCC3)nc2c1`, for which the T/C (dose: 50.0 mg/kg/injection, schedule: Q01DX009 (ip), vehicle: suspension in saline) was 97 % of control; the T/C (dose: 100.0 mg/kg/injection, schedule: Q01DX009 (ip), vehicle: suspension in saline) was 106 % of control; the T/C (dose: 200.0 mg/kg/injection, schedule: Q01DX009 (ip), vehicle: suspension in saline) is 95 % of control; the T/C (dose: 400.0 mg/kg/injection, schedule: Q01DX009 (ip), vehicle: suspension in saline) is 90 % of control.

In the case of `CCc1nc(N)nc(N)c1-c1ccc(N=[N+]=[N-])c(Cl)c1`, the T/C is 160 % of control under setting [5], 116 % of control under setting [6] and 90 % of control under setting [11].

With `COc1ccc2nc(C)c3c(c2c1)C(=O)N(CCC[N+]1([O-])CC[N+]([O-])(CCCN2C(=O)c4c(c5cc(OC)ccc5[n+]([O-])c4C)C2=O)CC1)C3=O` (stereo not given), the T/C under setting [12] is 87 % of control, the T/C under setting [13] was 89 % of control and the T/C under setting [14] is 92 % of control.

On to `NC(=O)N/N=C1/C=CC2(CC=CCC2)CC1` (stereo not given), for which the T/C under setting [15] is 90 % of control, the T/C under setting [16] was 104 % of control and the T/C under setting [17] was 90 % of control.

On to `ClCc1ccc(CCl)c(Cl)c1Cl`, for which the T/C reads like this: under setting [2], 100 % of control; (dose: 25.0 mg/kg/injection, schedule: Q04DX003 (ip), vehicle: saline with Tween-80) 100 % of control; under setting [3], 95 % of control; (dose: 50.0 mg/kg/injection, schedule: Q04DX003 (ip), vehicle: saline with Tween-80) 95 % of control; (dose: 100.0 mg/kg/injection, schedule: Q01DX009 (ip), vehicle: saline with Tween-80) 95 % of control; under setting [10], 95 % of control.

For `O=C(NC[N+]12CCO[B-]1(c1ccccc1)OCC2)c1ccccc1O` (stereo not given), the T/C reads like this: under setting [18], 106 % of control; under setting [19], 98 % of control; under setting [20], 103 % of control.

Take `CCOC(=O)C1=C(C)OC(C)(/N=C(\C#N)C(=O)OC)C1c1ccccc1` (stereo not given): the T/C under setting [12] was 93 % of control, the T/C under setting [13] was 95 % of control and the T/C under setting [14] is 98 % of control.

As for `CC1C=CC(C)N(C(N)=O)N1C(N)=O` (stereo not given), the T/C by setting is: (dose: 100.0 mg/kg/injection, schedule: Q01DX001 (ip), vehicle: saline with Tween-80) 98 % of control; (dose: 200.0 mg/kg/injection, schedule: Q01DX001 (ip), vehicle: saline with Tween-80) 100 % of control; (dose: 400.0 mg/kg/injection, schedule: Q01DX001 (ip), vehicle: saline with Tween-80) 91 % of control.

Regarding `CCOC(=O)C1C(=O)[C@H](C(=O)OC)C2CCCC3CCCC1N32` (stereo not given in full), the T/C is 86 % of control under setting [12] and 87 % of control under setting [13].

Regarding `CC(=O)Oc1cc(OCCCc2ccc(F)cc2)cc2ccc3ccccc3c12`, the T/C is 92 % of control under setting [5] and 92 % of control under setting [11].

In the case of `O=C(O)c1cc(Cl)n[nH]c1=O`, the T/C reads like this: under setting [18], 95 % of control; under setting [19], 92 % of control; under setting [20], 86 % of control.

As for `NC(=Nc1ccccc1)Nc1ccccc1`, the T/C is, setting by setting: under setting [1], 99 % of control; under setting [2], 104 % of control; under setting [3], 102 % of control.

For the molecule `CC(=O)C1C(=O)C(=O)N(c2ccccc2[N+](=O)[O-])C1=O` (stereo not given), the T/C by setting is: (dose: 12.5 mg/kg/injection, schedule: Q01DX005 (ip), vehicle: saline with Tween-80) 101 % of control; (dose: 25.0 mg/kg/injection, schedule: Q01DX005 (ip), vehicle: saline with Tween-80) 107 % of control; (dose: 50.0 mg/kg/injection, schedule: Q01DX005 (ip), vehicle: saline with Tween-80) 100 % of control and 113 % of control.

For `O=C1NCCN1c1cccc([N+](=O)[O-])c1`, the T/C is, setting by setting: (dose: 12.5 mg/kg/injection, schedule: Q01DX009 (ip), vehicle: saline sonified) 90 % of control; (dose: 25.0 mg/kg/injection, schedule: Q01DX009 (ip), vehicle: saline sonified) 100 % of control; (dose: 50.0 mg/kg/injection, schedule: Q01DX009 (ip), vehicle: saline sonified) 90 % of control.

For the molecule `C[C@@H]1C(=O)O[C@H]2[C@H]1CC[C@@]1(C)C=C(Cl)C(=O)[C@@H](C)[C@H]21`, the T/C is 100 % of control under setting [4] and 117 % of control under setting [5].

For the molecule `COc1ccc(OC)c(C(=O)C[n+]2ccccc2)c1`, the T/C (dose: 12.5 mg/kg/injection, schedule: Q04DX003 (ip), vehicle: saline) was 95 % of control; the T/C (dose: 25.0 mg/kg/injection, schedule: Q04DX003 (ip), vehicle: saline) was 90 % of control; the T/C (dose: 50.0 mg/kg/injection, schedule: Q04DX003 (ip), vehicle: saline) was 100 % of control.

Consider `COCC1(C)CCCC2(C)C3=C(CC=C(OC)C3)CCC12` (stereo not given), for which the T/C is 102 % of control under setting [15], 94 % of control under setting [16] and 90 % of control under setting [17].
